≈ marks a conversion by molar mass, not a printed value. Read-outs that look alike come from different tables or passages of the source. Marks after values point to notes of the source that are not given here.
Legend:
[1] = system: K562 human leukemia-derived cell lines; assay: K562 human leukemia cell-proliferation inhibition test; type: cell-based; settings: K562 cells, 72 hours, viable cells counted with trypan blue
Procedure: K562 Human Leukemia Cell-Proliferation Inhibition Test
A cell proliferation inhibition test using K562 cells was performed. The activity in the presence of a test substance was compared to the activity in the presence of green tea polyphenol (GTP). The materials used in the test are as follows.
Cells: K562 human leukemia-derived cell lines (DS Pharma Biomedical Co., Ltd.)
Control Substance: Green Tea Polyphenols, abbreviation: GTP (LKT Laboratories, Inc.)
Culture solution: 10% equine serum-supplemented RPMI1640 medium
A test substance and a control substance were used by dissolving each of them in DMSO. To a solution (0.99 mL) containing K562 cells in a cell concentration of 20,000 cells/mL, a test substance solution or a control substance solution (0.01 mL) was added and the cells were cultured. Seventy two hours later, a part of the cells was stained with trypan blue and viable cells were counted by a counting chamber.
In Table 2, “IC50” denotes the sample concentration inhibiting 50% of cell proliferation

[2] = system: Salmonella typhimurium TA98 strain and TA100 strain; assay: Growth inhibitory action and bactericidal action on salmonella (preincubation method, with and without S9 mix); type: cell-based; settings: for Bactericidal action: lowest concentration at which all bacterial cells were killed
Procedure: Growth inhibitory action and bactericidal action on salmonella
1) Preparation of Test-Substance Solution
Test substances (compounds listed in Table 1) each were prepared by dissolving it in DMSO when used. Preparation was made in such a manner that the highest dose became 5000 μg/plate and the dose lower than this was prepared by a dilution method. In the table, reference numerals of individual compounds correspond to the numbers of the individual compounds synthesized in the above Examples (the same applies to the following Tables).
Salmonella typhimurium TA98 strain and TA100 strain were used.
These were supplied by Japan Bioassay Research Center, proliferated and examined for genetic properties and other properties in accordance with customary methods, in advance. After these strains were confirmed to have these properties, they are cryopreserved (−80° C.) with a DMSO-added medium; and thawed for use in each test.
3) A cryopreserved strain was thawed and inoculated in a 2.5% aqueous nutrient broth (OXOID No. 2) solution and cultured while shaking at 37° C. for 7 hours to obtain a cell suspension, which was subjected to tests.
A minimum glucose agar plate medium (Vital Media AMT-S, manufactured by Kyokuto Pharmaceutical Industrial Co., Ltd.) was used.
The top agar was prepared when used by blending an aqueous solution of 0.5 mM L-histidine and 0.5 mM D-(+)-biotin with an aqueous solution prepared by adding Bacto Agar (Difco) (0.6%) and sodium chloride (0.5%).
S9 was purchased from Kikkoman; whereas a cofactor was previously prepared in accordance with a method known in the art. They were mixed in a customary method to prepare S9 mix.
Using a test system containing S9 mix and a test system containing no S9 mix, a test was carried out in accordance with a preincubation method. As the dose selection, the highest dose was specified as […], which was then serially diluted in a common ratio of 2 to prepare a total of 15 doses to be used in the test.
To a sterile test tube, a test solution (0.1 mL) and 0.1 M Na-phosphate buffer or S9 mix (0.5 mL) and a cell suspension (0.1 mL) were sequentially dispensed. Pre-incubation was carried out at 37° C. for 20 minutes while shaking. After completion of the pre-incubation, top agar (2 mL) kept warm at 45° C. was added, mixed and placed on a minimum glucose agar plate medium. After solidification, the plate was turned upside down and cultured at 37° C. for 48 hours.
After completion of the culture, the state of microbial growth was observed by a stereomicroscope. After a precipitate on the plate was observed, revertant colonies were counted by the naked eye or a colony counter.
7) Criteria for Determination
Growth of both TA98 and TA100 strains was examined in the presence or absence of S9 mix. Among the resultant concentrations at which growth was inhibited, the lowest concentration was specified as the growth inhibitory concentration. Similarly, the bactericidal concentration was specified as the lowest concentration at which all bacterial cells were killed.

[3] = system: TNF-α mRNA expression in RBL-2H3 cells; assay: Validation test in RBL-2H3 cell: TNF-α mRNA expression by antigen stimulation (Real-time PCR); type: cell-based, Rat; settings: 10 μmol/L, untreated control as 100
Procedure: 2. Validation Test in RBL-2H3 Cell
(Effect on Inflammation Mediator mRNA Expression by Antigen Stimulation)
After a cell model for an allergic reaction, RBL-2H3 cells, were stimulated by an antigen, mRNA expression level of a typical inflammation mediator, TNF-α, in the cell was measured by a Real-time PCR method. In this manner, a confirmation test for anti-inflammatory effect of Compound 3 was performed.
A test substance (Compound 3) (50 mg) was dissolved by adding 50 vol % ethanol (1 mL) to this to obtain an ethanol solution having a concentration of 50 mg/mL. The resultant solution was diluted with a medium. […] As a control (for comparison), Wortmannin (10 μM) was used. Herein, the concentrations were all indicated as the concentrations in cell supernatants.
RBL-2H3 cells were sensitized with anti-DNP-IgE antibody for 2 hours. A medium or a test solution was added and heat was applied at 37° C. for 10 minutes and then, a DNP-HSA solution was added. A reaction was carried out at 37° C. for 30 minutes. After completion of the reaction, total RNA was extracted from a cell fraction and cDNA was synthesized by use of Random Primer and Reverse Transcriptase. After a specific primer for a desired gene (ITNF-α,β-actin) was added, a Real-time PCR method was carried out in accordance with SYBR Green method using the resultant cDNA as a template to determine the expression level of mRNA. The expression ratio of the desired gene relative to a housekeeping gene, β-actin, was calculated. In this manner, a change in expression level relative to an untreated control was calculated.
Main test conditions and outline of the operation will be described below.
Cell: Rat basophil leukemic cell, RBL-2H3 [Human Sciences Foundation]
Antigen stimulation: Anti-DNP-IgE antibody, DNP labeled albumin
[Sigma-Aldrich Corporation]
Desired genes: IL-4, MCP-1, TNF-α, β-actin (housekeeping gene)
Measurement apparatus: StepOnePlus Real-Time PCR System [Life
Technologies Corporation] Measurement conditions: 95° C. (20 sec)→{95° C. (3 sec)→60° C. (30 sec)}×40 cycles
mRNA expression level (%) was obtained based on the expression level of the untreated control as 100.

[4] = Homo sapiens, K562, 72 h, read-out: IC50
[5] = TA98 and TA100, presence or absence of S9 mix
[6] = lowest concentration at which growth was inhibited, TA98 and TA100, presence or absence of S9 mix

Row | Structure (SMILES) | IC50 [1, 4] | Growth inhibition ([2]; TYPHIMURIUM) | Bactericidal action [2, 5] | IC50 [1] | Growth inhibition [2, 6] | TNF-α mRNA expression level [3]
1 | CC(=O)Oc1ccc(/C=C/C(=O)Nc2ccc(S(F)(F)(F)(F)F)cc2)cc1OC(C)=O [Compound 4, 4-(3,4-diacetoxycinnamoylamino)pentafluorosulfanylbenzene] | 2.2 µg/mL (≈ 4.73 µM) | <39.1*^1 μg/plate | 156 μg/plate | – | – | –
2 | O=C(/C=C/c1ccc(O)c(O)c1)Nc1ccc(S(F)(F)(F)(F)F)cc1 [Compound 5, 4-(3,4-dihydroxycinnamoylamino)pentafluorosulfanylbenzene] | – | – | 78.1 μg/plate | 0.36 µg/mL (≈ 0.944 µM) | 19.5 μg/plate | –
3 | CC(=O)Oc1cc(C(=O)Nc2ccc(S(F)(F)(F)(F)F)cc2)cc(OC(C)=O)c1OC(C)=O [Compound 9, 4-(3,4,5-triacetoxybenzoylamino)pentafluorosulfanylbenzene] | 1.2 µg/mL (≈ 2.41 µM) | – | 625 μg/plate | – | 156 μg/plate | –
4 | O=C(Nc1cccc(S(F)(F)(F)(F)F)c1)c1cc(O)c(O)c(O)c1 [Compound 11, 3-(3,4,5-trihydroxybenzoylamino)pentafluorosulfanylbenzene] | 1.5 µg/mL (≈ 4.04 µM) | – | 625 μg/plate | – | 78.1 μg/plate | –
5 | COc1cc(/C=C/C(=O)Nc2ccc(S(F)(F)(F)(F)F)cc2)ccc1OC(C)=O [Compound 20, 4-(4-acetoxy-3-methoxycinnamoylamino)pentafluorosulfanylbenzene] | 1.7 µg/mL (≈ 3.89 µM) | – | – | – | 156 μg/plate | –
6 | O=C(/C=C/c1ccccc1)Nc1ccc(S(F)(F)(F)(F)F)cc1 [Compound 35, 4-(cinnamoylamino)pentafluorosulfanylbenzene] | 0.2 µg/mL (≈ 0.573 µM) | – | >2500 μg/plate | – | 39.1 μg/plate | –
7 | COC[C@H]1OC(=O)c2coc3c2[C@@]1(C)C1=C(C3=O)[C@@H]2CCC(=O)[C@@]2(C)C[C@H]1OC(C)=O [Wortmannin, reference compound] | – | – | – | – | – | 45%
